{"source": "paper PMC5622430", "about": "“A Drosophila female pheromone elicits species-specific long-range attraction via an olfactory channel with dual specificity for sex and food” (BMC Biology, 2017)"}
{"biological_target": "T1, Or69aB (Drosophila melanogaster, UniProt P82985)", "T1 construct": "gene Or69a; full ORF cloned from antennal cDNA into pUAS.g-HA.attB; expressed in Dhalo ab3A empty neurons (Or22a-Gal4), endogenous Orco; with Odorant receptor coreceptor", "T1 sequence (P82985 1-393)": "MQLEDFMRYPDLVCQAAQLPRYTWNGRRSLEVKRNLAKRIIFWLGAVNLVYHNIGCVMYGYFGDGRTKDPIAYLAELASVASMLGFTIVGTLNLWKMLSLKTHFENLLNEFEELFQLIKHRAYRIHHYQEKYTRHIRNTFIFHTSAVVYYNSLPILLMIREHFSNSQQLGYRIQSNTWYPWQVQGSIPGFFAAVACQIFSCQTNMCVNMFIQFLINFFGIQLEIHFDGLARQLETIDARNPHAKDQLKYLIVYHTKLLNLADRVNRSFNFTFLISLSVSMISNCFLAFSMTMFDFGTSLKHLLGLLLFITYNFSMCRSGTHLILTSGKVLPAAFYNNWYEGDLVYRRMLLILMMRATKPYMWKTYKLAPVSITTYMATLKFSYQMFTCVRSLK", "T1 sequence (Q9VNB5 1-486 partner)": "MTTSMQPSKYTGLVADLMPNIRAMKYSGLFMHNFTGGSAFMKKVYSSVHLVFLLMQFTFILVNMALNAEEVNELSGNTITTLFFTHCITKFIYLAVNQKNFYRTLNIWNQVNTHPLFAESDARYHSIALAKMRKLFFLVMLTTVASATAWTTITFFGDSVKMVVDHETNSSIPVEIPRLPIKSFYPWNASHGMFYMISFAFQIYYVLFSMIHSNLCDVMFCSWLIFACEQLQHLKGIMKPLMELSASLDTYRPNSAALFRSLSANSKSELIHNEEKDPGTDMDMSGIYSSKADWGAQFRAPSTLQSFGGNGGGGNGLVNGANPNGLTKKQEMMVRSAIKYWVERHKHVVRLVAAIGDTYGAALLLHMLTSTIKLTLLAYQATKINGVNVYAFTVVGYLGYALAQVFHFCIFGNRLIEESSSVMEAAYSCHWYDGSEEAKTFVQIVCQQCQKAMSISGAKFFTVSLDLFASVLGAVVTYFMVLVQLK", "test": "single sensillum recording, empty ab3A neuron", "type": "cell-based", "settings": "10 ug on filter paper, 0.5 s puff; activation (agonist)"}
{"smiles": "C=C(C)[C@H]1CC=C(C)C(=O)C1", "note": "[(S)-carvone]", "SSR response (spikes/s)": "Or69aB responds best to both isomers of carvone"}
{"smiles": "C=C(C)[C@@H]1CC=C(C)C(=O)C1", "note": "[compound 8, (R)-carvone]", "SSR response (spikes/s)": "(R)-carvone, which elicited the strongest Or69aB response"}
{"smiles": "CCCCCC/C=C\\CCC=O", "note": "[compound 10, (Z)-4-undecenal]", "SSR response (spikes/s)": "Or69aB responds best to both isomers of carvone, followed by Z4-11Al"}
{"biological_target": "T2, Or69aA (Drosophila melanogaster, UniProt Q9VU27)", "T2 construct": "gene Or69a; full ORF cloned from antennal cDNA into pUAS.g-HA.attB; expressed in Dhalo ab3A empty neurons (Or22a-Gal4), endogenous Orco; with Odorant receptor coreceptor", "T2 sequence (Q9VU27 1-393)": "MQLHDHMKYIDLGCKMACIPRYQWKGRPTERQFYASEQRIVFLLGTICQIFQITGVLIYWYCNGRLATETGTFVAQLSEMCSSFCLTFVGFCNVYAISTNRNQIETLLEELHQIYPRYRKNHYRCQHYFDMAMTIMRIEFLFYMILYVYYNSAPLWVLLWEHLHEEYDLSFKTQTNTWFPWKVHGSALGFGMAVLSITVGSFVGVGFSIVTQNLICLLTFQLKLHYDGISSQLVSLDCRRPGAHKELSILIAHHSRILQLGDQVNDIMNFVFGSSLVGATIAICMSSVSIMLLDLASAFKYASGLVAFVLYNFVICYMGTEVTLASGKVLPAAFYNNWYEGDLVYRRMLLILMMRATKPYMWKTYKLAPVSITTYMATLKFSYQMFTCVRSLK", "T2 sequence (Q9VNB5 1-486 partner)": "T1 sequence (Q9VNB5 1-486 partner)", "test": "single sensillum recording, empty ab3A neuron", "type": "cell-based", "settings": "10 ug on filter paper, 0.5 s puff; activation (agonist)"}
{"smiles": "C=C[C@@](C)(O)CCC=C(C)C", "note": "[(S)-linalool]", "SSR response (spikes/s)": "The most active ligands (S)-α-terpineol and (S)- and (R)-linalool"}
{"smiles": "CC1=CC[C@@H](C(C)(C)O)CC1", "note": "[compound 1, (S)-α-terpineol]", "SSR response (spikes/s)": "The most active ligands (S)-α-terpineol and (S)- and (R)-linalool"}
{"smiles": "C=C[C@](C)(O)CCC=C(C)C", "note": "[compound 4, (R)-linalool]", "SSR response (spikes/s)": "The most active ligands (S)-α-terpineol and (S)- and (R)-linalool"}
